Reference: patent US11911413B2, “Methods and compositions for the treatment of pain and/or inflammation” (Proteobioactives Pty Limited, priority 2018, dated 2024)

Experiments:
[1] = 223 cases in the United States, FDA memorandum 2005; cited from earlier work
[2] = tested on: postmenopausal women with mild to moderate osteoarthritis; settings: cited from earlier work
[3] = tested on: leukocytes isolated from the blood of these patients; settings: seven days after NaPPS administration, cited from earlier work
[4] = tested on: Japanese patients with mild knee OA; settings: weekly subcutaneous 2 mg/kg NaPPS over 6 weeks; assessed to 52 weeks; cited from earlier work
[5] = tested on: elderly subjects with high blood viscosity and filterability; settings: 15 elderly subjects; IM 50 mg NaPPS twice daily for a week; cited from earlier work
[6] = single oral dose [3H]PPS with 300 or 450 mg un-labelled PPS; healthy female subjects; cited from earlier work
[7] = tested on: patients with bone marrow lesions (oedema) diagnosed by MRI; settings: PPS administered systemically (IM or SC); cited from earlier work
[8] = tested on: patients with symptomatic knee OA; settings: NaPPS 3 mg/kg, 4 weekly IM injections, cited from earlier work
patients with knee OA = assay: Double-blind comparator clinical trial Pentabrex vs celecoxib, knee OA (Example 7); format: in vivo, human
Excerpt: (§1) A prospective, dose ranging, double-blind, comparator clinical trial to evaluate the tolerability and efficacy of Pentabrex™, (Proteobioactives Pty Ltd, Balgowlah, NSW, Australia) compared to celecoxib, for the relief of symptoms in elderly patients with OA of the hand and knee conducted at the Subiaco Rheumatology Clinic, Subiaco, Perth, WA, Australia.
(§2) Thirty three male and female patients with symptomatic hand or knee OA were obtained from referrals sent by general medical practitioners located in Perth (Western Australia) suburbs. […] To be included in the clinical trial, patients had to be 50 years of age or older and have an OA grade of 3-4 (Kellgren J H, Lawrence J S. Radiological assessment of osteoarthrosis. Annals Rheumatic Dis.1957; 16:494-502) that had been symptomatic for at least 6 months prior to their inclusion. If a patient had pain in both knees or both hands, the more painful knee or hand was the joint used for assessment. If patients had both hand and knee OA each most painful joint was assessed separately.
(§3) Patients with rheumatoid arthritis or any other rheumatic condition that required the continuous administration of a second line rheumatic agent such as methotrexate, steroid or cytokine antagonist, had current bleeding diathesis or were receiving treatment with blood thinners (such as warfarin), or had any significant medical conditions involving the liver, kidney, or their motor or nervous systems were excluded from the trial.
(§4) Although patients were requested not to consume additional analgesics or NSAIDs over the duration of the study, if they found this to be too difficult because of the unacceptable level of pain they experienced, they were required to document the drugs and quantities they used for relief of pain in a six week daily diary that supplied with the clinical trial test package manufactured by the compounding chemist (Kingsway, Brookvale NSW 2100, Australia). Failure to complete the daily dairies over the duration of the 6 week trial and return the used blister pack to the examining clinician at the final consultation would be taken as to non-compliance with the trial protocol. The diary requirement was included as part of patient assessment for the duration of the trial because of the known non-compliance of patients taking oral medications over extended periods of time (van Berge Henegouwen MTH, van Driel H F, Kasteleijn-Nolst DGA. A patient diary as a tool to improve medicine compliance. Pharm World Sci. 1999; 21: 21-24, Farmer K C, Methods for measuring and monitoring medication regimen adherence in clinical trials and clinical practice. Clinical […]
For patients with OA of the knee joints their VAS pain scores were determined for their pain at rest, pain on walking and early morning stiffness. […]

[9] = tested on: patients with OA of the hand and knee; assay: Double-blind comparator clinical trial, hand and knee OA combined (Example 7); format: in vivo, human; settings: daily for 6 weeks
Excerpt: as §1, §2, §4
The same clinical parameters that were determined for all patients at baseline were assessed at the final examination six weeks later. The patient's diaries and blister packs returned were also examined and the number of supplementary analgesics they consumed was recorded. Any adverse side effects noted over the duration of the trial were also recorded. […]

patients with hand OA = assay: Double-blind comparator clinical trial Pentabrex vs celecoxib, hand OA (Example 7); format: in vivo, human
Excerpt: as §1, §2, §3, §4
At the commencement of the trial details of the patient's age, height, weight, location of the most painful joints, duration of symptoms and grade of OA were recorded. […]

[10] = Pentabrex 350 mg or celecoxib 175 mg daily for 6 weeks
[11] = Pentabrex n = 5, celecoxib n = 9, daily for 6 weeks
[12] = Pentabrex n = 5, celecoxib n = 4, daily for 6 weeks

CS(=O)(=O)c1ccc(C2=C(c3ccccc3)C(=O)OC2)cc1 [rofecoxib, 4-(4-methylsulfonylphenyl)-3-phenyl-5H-furan-2-one]
thrombotic or embolic events associated with the drug [1]: 99 cases

[2R,3R,4S,5R)-2-hydroxy-5-[(2S,3R,4S,5R)-5-hydroxy-3,4-disulfo-oxyoxan-2-yl]oxy-3-sulfooxyoxan-4-yl] hydrogen sulfate [NaPPS]
peripheral blood mononuclear cell procoagulant activity (MPA) ([2]; 3 mg/kg NaPPS IM, 24 hours after administration): significantly reduced to within the normal range
Plasma concentrations of lipoprotein lipase, hepatolipase, and superoxide dismutase ([2]; 3 mg/kg NaPPS IM, between 2 and 4 hours after administration): significantly elevated
patients reporting significant clinical improvement of their symptoms ([2]; 4 weekly IM injections of 3 mg/kg, for up to 12 weeks after the last injection): 11
concentrations of arachidonic acid-derived lipoxygenase (LOX) metabolites released from the cells ([3]; compared to leukocytes collected before): significantly decreased
prostaglandin metabolites generated by the COX pathways ([3]; non-stimulated leukocytes): increased
joint swelling, knee flexion, pain while walking and stair climbing [4]: improved significantly
blood viscosity and filterability [5]: significant reduction
administered dose excreted in the faeces as intact PPS [6]: 84%
administered dose excreted in urine in a depolymerized form [6]: 6%
bone marrow lesions (oedema) and accompanying pain [7]: resolved the bone marrow lesions (oedema) and accompanying pain
pain on walking and other physical activities, such as stair climbing [8]: significantly improved
joint pain at rest relative to placebo controls ([8]; maintained for 20 weeks after cessation): significantly improvement

Cc1ccc(-c2cc(C(F)(F)F)nn2-c2ccc(S(N)(=O)=O)cc2)cc1 [Celecoxib, 4-[5-(4-methylphenyl)-3-(trifluoromethyl)pyrazol-1-yl] benzene sulfonamide]
Negative response, % of patients (patients with knee OA; [10]): 23.33%
Positive response, % of patients (patients with knee OA; [10]): 77.77%
Negative response, number of patients (patients with knee OA; [11]): 2
Positive response, number of patients (patients with knee OA; [11]): 7
Negative response, % of patients [9]: 38.46%
Negative response, number of patients [9]: 5
Positive response, % of patients [9]: 61.54%
Positive response, number of patients [9]: 8
Negative response, % of patients (patients with hand OA; [10]): 75%
Positive response, % of patients (patients with hand OA; [10]): 25%
Negative response, number of patients (patients with hand OA; [12]): 3
Positive response, number of patients (patients with hand OA; [12]): 1
thrombotic or embolic events associated with the drug [1]: 102 cases

CCc1cccc2c3c([nH]c12)C(CC)(CC(=O)O)OCC3 (stereo not drawn) [etodolac]
thrombotic or embolic events associated with the drug [1]: 22 cases
